Data on three sequences can be found in patent US9169315B2, “Heparin cofactor II fragments with anti-inflammatory and anti-coagulant activity” (XIMMUNE AB, priority 2009, dated 2015).

No end group written: not given here.

Data set [1] has as its system intrinsic pathway of coagulation. In words: Activated partial thromboplastin time (aPTT). The conditions noted are these: normal human plasma. As for the experimental part: All clotting times were measured using an Amelung coagulometer. Activated partial thromboplastin time (aPTT) was measured by incubating the peptides diluted in sterile water at the indicated concentrations, with 100 μL citrated human plasma for 1 minute followed by the addition of 100 μL aPTT reagent (aPTT Automate, Diagnostica Stago) for 60 seconds at 37° C. Clotting was initiated by the addition of 100 μL of a 25-mM CaCl2 solution. In the prothombrin time assay (PT), clotting was initiated by the addition of 100 μL Thrombomax with calcium (PT reagent; Sigma-Aldrich). For measuring the thrombin clotting time (TCT), clotting was initiated by the addition of 100 μL Accuclot thrombin time reagent (TCT reagent; Sigma-Aldrich).
All clotting times were analyzed using a coagulometer (Amelung, Lemgo, Germany). The prothrombin time (PT) and the Thrombin clotting time (TCT) were measured as followed: Hundred microliter of fresh human citrate plasma together with indicated concentrations of NLF20 were pre-warmed for 60 sec at 37° C. before clot formation was initiated by adding 100 μl a clotting reagent. (PT-thromboplastin reagent (Trinity Biotech), TCT: Thrombin reagent (Technoclone)). To record the activated partial thromboplastin time (aPTT), 100 μl of a kaolin-containing solution (Technoclone) was add to the plasma-peptide mix and incubated for 200 sec before clot formation was initiated by adding 100 μl of 30 mM fresh CaCl2 solution.

The subject of data set [2] is RAW 264.7 macrophages. Description: NO production of stimulated macrophages (Griess reaction). It counts as cell-based, mouse. The conditions noted are these: for NO production: stimulated with E. coli LPS, LTA, PGN, zymosan A; for NO-release of LPS-stimulated macrophages: E. coli or P. aeruginosa LPS, 10 ng/ml. The procedure:
(§1) 3.5×10^5 cells were seeded in 96-well tissue culture plates (Nunc, 167008) in phenol red-free DMEM (Gibco) supplemented with 10% FBS and antibiotics. Following 6 hours of incubation to permit adherence, cells were stimulated with 10 ng/mL E. coli (0111:84) LPS (Sigma), lipoteichoic acid, peptioglycan, or zymosan, with and without peptides at the indicated doses (see figure legends and figures). The levels of NO in culture supernatants were determined after 24 hours from stimulation using the Griess reaction. Briefly, nitrite, a stable product of NO degradation, was measured by mixing 50 μl of culture supernatants with the same volume of Griess reagent (Sigma, G4410) and reading absorbance at 550 nm after 15 min. Phenol-red free DMEM with FBS and antibiotics were used as a blank. A standard curve was prepared using 0-80 μM sodium nitrite solutions in ddH20.
as §1, with “coli” for “coli (0111:84)”, “(0111:B4)” for “(Sigma), lipoteichoic acid, peptioglycan, or zymosan,”, “peptide of various doses.” for “peptides at the indicated doses (see figure legends and figures).”, “reaction (Pollock, Forstermann et al. 1991).” for “reaction.”
For orientation: Nitrite, measured by Griess reagent, commonly stands in for NO production.

Data set [3] concerns E. coli, P. aeruginosa and S. aureus. In words: Viable count assay. It counts as cell-based. Conditions: for Time within which bacterial killing occurred: 30 μM, pH 7.4, 20% plasma; for Time within which bacterial killing occurred / Antibacterial activity in viable count assays: 0.15 M NaCl, 10 mM Tris; for Antibacterial activity in viable count assays: with or without 20% human citrate plasma. As for the experimental part: E. coli ATCC 25922 bacteria were grown to mid-logarithmic phase in Todd-Hewitt (TH) medium. Bacteria were washed and diluted in 10 mM Tris, pH 7.4 containing 5 mM glucose. E. coli ATCC 25922 ([…]; 2×10^6 cfu/ml) were incubated, at 37° C. for 2 h with peptides at the indicated concentrations. Other experiments with the TFPI-peptides and LL-37 were performed in 10 mM Tris, pH 7.4, containing also 0.15 M NaCl, with normal or heat inactivated 20% citrate-plasma (PP). Serial dilutions of the incubation mixture were plated on TH agar, followed by incubation at 37° C. overnight and cfu determination.
(§2) E. coli ATCC 25922, P. aeruginosa 15159, or S. aureus ATCC 29213 bacteria were grown to mid-logarithmic phase in Todd-Hewitt (TH) medium (Becton and Dickinson, Maryland, USA). The microorganisms were then washed and diluted in 10 mM Tris, pH 7.4 containing 5 mM glucose. Following this, bacteria (50 μl; 2×10^6 cfu/ml) were incubated, at 37° C. for 2 hours, with KYE28, KYE21 or LL-37 (at 0.03, 0.06, 0.3, 0.6, 3, 6, 30, 60 μM) in 10 mM Tris, 0.15 M NaCl, with or without 20% human citrate-plasma. To quantify the bactericidal activity, serial dilutions of the incubation mixtures were plated on TH agar, followed by incubation at 37° C. overnight and the number of colony-forming units was determined. 100% survival was defined as total survival of bacteria in the same buffer and under the same condition in the absence of peptide. Significance was determined using the statistical software SigmaStat (SPSS Inc., Chicago, Ill., USA).
as §2, with “NLF20” for “KYE28, KYE21”, “citrate-plasma. In the experiments using 50% whole blood, S. aureus ATCC 29213 and P. aeruginosa ATCC 27853 bacteria (50 μl; 2×10^8 cfu/ml) were incubated at 37° C. for 1 hour in the presence of peptide at 60 (for P. aeruginosa) and 120 μM (P. aeruginosa and S. aureus).” for “citrate-plasma.”

The subject of data set [4] is erythrocytes. It counts as cell-based, human.

As to NLFRKLTHRLFRRNFGYTLR [NLF20], the “Activated partial thromboplastin time (aPTT)” value in data set [1] is listed as “impaired the intrinsic pathway of coagulation”. Also, in data set [2] (10 ng/ml E. coli or P. aeruginosa LPS), the “Concentration eliminating LPS-induced NO-responses” value was 20 to 40 µM. For the same sequence, in data set [2], the NO production result is listed as “blocks NO production”. In data set [3], the “Time within which bacterial killing occurred” value lay within 5 to 20 min and the “Antibacterial activity in viable count assays” value is reported as “displays significant antibacterial activity”. In addition, the “Antibacterial activity in presence of human citrated plasma (viable count)” value in data set [3] (20% human citrate plasma vs buffer) was “retained, and for E. coli and S. aureus, even enhanced”. In data set [4], the Hemolytic activity entry is “hemolytic activities at higher doses (30-60 μM)”.
For KYEITTIHNLFRKLTHRLFRR [KYE21], the “Activated partial thromboplastin time (aPTT)” value in data set [1] is “only minor blocking of the aPTT”. In addition, in data set [2], the “NO-release of LPS-stimulated macrophages” value was “significantly inhibited NO-release” and the NO production result is reported as “blocks NO production”. For the same sequence, in data set [3], the “Antibacterial activity in viable count assays” value is recorded as “significant antibacterial activity”.
Take KYEITTIHNLFRKLTHRLFRRNFGYTLR [KYE28]: the “Activated partial thromboplastin time (aPTT)” value in data set [1] was “impair the intrinsic pathway of coagulation”. Moreover, in data set [2], the “NO-release of LPS-stimulated macrophages” value is “significantly inhibited NO-release” and the NO production entry is listed as “blocks NO production”. In data set [3], the “Time within which bacterial killing occurred” value is 5 to 20 min and the “Antibacterial activity in viable count assays” value is listed as “significant antibacterial activity”. Further, the Hemolytic activity result in data set [4] is “significant hemolytic activities at higher doses (30-60 μM)”.
